Measurements taken from ChEMBL document CHEMBL1201862, “PubChem BioAssay data set” (2004).
The source made the active and inactive calls. Cut-off read from the data, not from the text of the source, for most assays here: actives have a measured EC50 and inactives only a lower limit.

Experiments:
[1] = C. albicans growth with fluconazole, confirmation, fluorescence, retest (AID 2467); assay type: functional, cell-based
[2] = NIH-3T3 fibroblast cytotoxicity, dose response, cytotoxicity control, cell-based, fluorescence, Alamar Blue, secondary assay (AID 2327); assay type: functional;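 note: NIH-3T3 mouse fibroblasts cultured with fluconazole at 8 µg/mL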
[3] = HEp-2 cell cytotoxicity, dose response, cytotoxicity control for RSV inhibitor project, HTS (AID 2410); assay type: functional; conditions: human respiratory syncytial virus
[4] = system: Streptococcus sp. 'group A'; assay: growth inhibition of control SK(-) GAS strain, dose response, counter-screen for streptokinase expression inhibitor project, luminescence, kanamycin, BacTiterGlo, confirmation (AID 1900); assay type: functional, organism-based
Streptokinase A = target: T1, Streptokinase A (Streptococcus pyogenes serotype M1, UniProt P10520); assay: S. pyogenes streptokinase expression inhibitors, potency, dose response, plasminogen activation absorbance, OD405 (AID 1914); assay type: functional, Streptococcus pyogenes M1 GAS;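 note: secreted streptokinase activity via plasminogen activation per viability signal from cell pellet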
T1 sequence (P10520 whole entry): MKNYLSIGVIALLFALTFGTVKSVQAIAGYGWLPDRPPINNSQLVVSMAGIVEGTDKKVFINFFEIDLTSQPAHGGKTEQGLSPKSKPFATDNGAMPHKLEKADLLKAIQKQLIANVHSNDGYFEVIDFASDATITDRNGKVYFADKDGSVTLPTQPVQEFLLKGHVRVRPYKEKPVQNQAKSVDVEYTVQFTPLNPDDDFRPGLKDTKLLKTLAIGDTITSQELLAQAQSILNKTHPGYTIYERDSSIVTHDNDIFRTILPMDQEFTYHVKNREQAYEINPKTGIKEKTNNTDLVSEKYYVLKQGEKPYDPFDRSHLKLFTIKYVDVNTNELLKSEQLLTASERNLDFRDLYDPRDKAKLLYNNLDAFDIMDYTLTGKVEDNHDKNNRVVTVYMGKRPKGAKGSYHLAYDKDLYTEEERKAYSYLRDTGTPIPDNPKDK

Streptococcus = assay: Group A Streptococcus viability loss, dose response, counter-screen for streptokinase expression inhibitor project, luminescence, BacTiterGlo (AID 1915); assay type: functional, organism-based;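 note: potency for reduction of bacterial viability or growth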
[5] = target: T2, Rac GTPase-activating protein 1 (Homo sapiens, UniProt Q9H0H5); assay: MgcRacGAP GTPase-activating activity inhibitors, confirmation, biochemical, ADP Hunter fluorescence, primary and confirmatory (AID 624330); assay type: functional
T2 sequence (Q9H0H5 whole entry): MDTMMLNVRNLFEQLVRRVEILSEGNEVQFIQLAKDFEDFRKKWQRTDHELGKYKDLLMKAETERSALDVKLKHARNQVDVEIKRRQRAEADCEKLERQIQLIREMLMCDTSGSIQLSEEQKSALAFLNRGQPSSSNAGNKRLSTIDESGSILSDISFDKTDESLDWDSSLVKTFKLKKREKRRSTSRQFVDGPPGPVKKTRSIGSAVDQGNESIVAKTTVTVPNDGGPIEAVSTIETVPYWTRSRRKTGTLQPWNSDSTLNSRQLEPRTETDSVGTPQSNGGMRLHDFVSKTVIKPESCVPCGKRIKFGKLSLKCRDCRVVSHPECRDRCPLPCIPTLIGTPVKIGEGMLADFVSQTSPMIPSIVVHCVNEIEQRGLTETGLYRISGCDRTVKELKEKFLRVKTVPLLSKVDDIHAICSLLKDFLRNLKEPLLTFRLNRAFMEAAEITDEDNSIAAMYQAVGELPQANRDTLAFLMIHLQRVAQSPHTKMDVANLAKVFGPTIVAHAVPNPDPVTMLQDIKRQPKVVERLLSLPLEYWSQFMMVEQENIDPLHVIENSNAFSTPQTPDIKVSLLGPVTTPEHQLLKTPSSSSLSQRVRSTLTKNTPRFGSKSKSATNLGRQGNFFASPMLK

HEK293 = assay: inhibitors of LMP1-driven NF-kB reporter, dose response, cell-based, HEK293, luciferase, cherry-pick (AID 588343); assay type: functional; conditions: Homo sapiens
[6] = Shn3 3'UTR reporter inhibitors, dose response, cell-based, Clone20 osteoblasts, firefly luciferase, cherry-picked (AID 624132); assay type: functional;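 note: firefly luciferase luminescence from reporter carrying the Shn3 3'UTR in osteoblasts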
cells = assay type: functional
[7] = target: T3, Ubiquitin-conjugating enzyme E2 N (Homo sapiens, UniProt P61088); assay type: functional;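 note: Dose-response confirmation in a TR-FRET assay detecting UBC13-driven polyubiquitin chain formation, inhibition measured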
T3 sequence (P61088 whole entry): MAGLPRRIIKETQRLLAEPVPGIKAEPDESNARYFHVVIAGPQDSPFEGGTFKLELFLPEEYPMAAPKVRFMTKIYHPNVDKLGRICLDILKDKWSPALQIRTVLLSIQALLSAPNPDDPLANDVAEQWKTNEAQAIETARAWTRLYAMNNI

Paired box protein Pax-8 = Paired box protein Pax-8 (Homo sapiens, UniProt Q06710); assay: inhibitors of PAX8-driven TPO luciferase reporter, dose response, RMG-I cells, cherry-pick (AID 687027); assay type: functional, cell-based;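 note: luciferase reporter driven by Pax8 target thyroperoxidase promoter measured by SteadyGlo luminescence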
Chain of Paired box protein Pax-8 (Q06710 whole entry): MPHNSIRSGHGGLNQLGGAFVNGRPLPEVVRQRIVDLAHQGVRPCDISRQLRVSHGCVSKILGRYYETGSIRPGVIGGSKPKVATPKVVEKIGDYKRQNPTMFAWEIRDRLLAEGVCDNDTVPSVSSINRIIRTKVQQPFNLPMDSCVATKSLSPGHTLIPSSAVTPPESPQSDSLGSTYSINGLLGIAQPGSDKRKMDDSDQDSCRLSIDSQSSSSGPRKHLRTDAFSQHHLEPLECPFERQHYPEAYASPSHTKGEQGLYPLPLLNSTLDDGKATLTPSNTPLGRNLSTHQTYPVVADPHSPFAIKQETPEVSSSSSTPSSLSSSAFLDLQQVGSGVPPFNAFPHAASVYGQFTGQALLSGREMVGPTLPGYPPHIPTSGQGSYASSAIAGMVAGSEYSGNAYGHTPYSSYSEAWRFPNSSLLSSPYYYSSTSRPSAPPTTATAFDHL

[8] = inhibitors of intracellular T. cruzi replication, confirmation, NIH3T3 host cells, beta-gal luminescence (AID 2044); assay type: functional, cell-based;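 note: intracellular parasites grown in NIH/3T3 mouse fibroblasts as host cells; luminescent beta-galactosidase reporter signal from transgenic T. cruzi replicating inside host cells; inhibitors lower the luminescence signal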
[9] = cytotoxicity toward NIH3T3 fibroblasts, dose response, counter-screen, cell-based, ATP luminescence, mouse fibroblasts (AID 2010); assay type: functional;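 note: cells exposed to compound for about 90 hours before reading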
[10] = inhibitors of firefly luciferase expression or activity, dose response, H4 neuroglioma cells, luminescence (AID 1990); assay type: functional, cell-based
[11] = inhibitors of SNCA 5'UTR-driven reporter translation, confirmation, H4 neuroglioma cells, luminescence (AID 1988); assay type: functional, cell-based
[12] = Luminescence Cell-Based Dose Response HTS to Identify Inhibitors of 5'UTR Stem-Loop Driven Prion Protein mRNA Translation in H4 Neuroglioblastoma Cells. [Related pubchem assays: 1827 (Project Summary), 1813 (Primary HTS)]; assay type: functional
[13] = target: T4, Heat shock factor protein 1 (Mus musculus, UniProt P38532); assay: inhibition of MG132-induced HSE-luciferase signal, confirmation, cell-based, NIH3T3, luminescence, dose retest (AID 2382); assay type: functional;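 note: NIH3T3 fibroblasts with HSF1-driven luciferase reporter stressed by proteasome inhibitor MG132; luminescence from HSF1-driven luciferase expression after 8 hours of MG132 stress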
T4 sequence (P38532 whole entry): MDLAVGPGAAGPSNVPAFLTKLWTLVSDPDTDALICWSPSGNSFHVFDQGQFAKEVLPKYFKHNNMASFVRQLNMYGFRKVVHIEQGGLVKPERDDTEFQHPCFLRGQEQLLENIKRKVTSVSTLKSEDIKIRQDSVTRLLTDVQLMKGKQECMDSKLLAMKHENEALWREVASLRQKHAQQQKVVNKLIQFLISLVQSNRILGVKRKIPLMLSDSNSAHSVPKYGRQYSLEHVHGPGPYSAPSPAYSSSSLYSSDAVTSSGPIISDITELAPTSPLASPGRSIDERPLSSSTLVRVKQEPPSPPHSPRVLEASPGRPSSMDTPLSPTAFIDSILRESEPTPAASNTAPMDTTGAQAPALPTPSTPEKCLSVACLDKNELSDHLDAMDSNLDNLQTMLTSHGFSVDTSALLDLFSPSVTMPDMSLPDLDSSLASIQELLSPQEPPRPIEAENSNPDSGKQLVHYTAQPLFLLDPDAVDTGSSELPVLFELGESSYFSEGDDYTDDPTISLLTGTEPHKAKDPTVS

Cc1cc(C)c(S(=O)(=O)Nc2cccc(-n3cnnn3)c2)c(C)c1
EC50 [1]: 10.9 µM (active) | EC50 [2]: 29.6 µM (active)

COc1cc2c(cc1OC)CN(C(=O)c1ccc3[nH]c(C)c(C)c3c1)CC2
CC50 [3]: > 50 µM (active)

COC(=O)N/N=C/c1c[n+]([O-])c2ccccc2[n+]1[O-] [CARBADOX]
EC50 [4]: 9.12 µM (active) | EC50 (Streptokinase A): > 150 µM (not active) | EC50 (Streptococcus): 11.5 µM (active)

Cc1ccc(NC(=S)NC(=O)C2CC2)cc1Cl
EC50 [1]: 3.32 µM (active) | EC50 [2]: > 160 µM (inactive)

CN(C)c1ccc(NC(=O)CCN2C(=O)c3cccc([N+](=O)[O-])c3C2=O)cc1
IC50 [5]: 86.5 µM (active)

CCCc1cc(C(=O)Nc2ccc(C(=O)c3ccc(F)cc3)cc2)n(C)n1
EC50 [4]: 19.7 µM (active) | EC50 (Streptokinase A): 46.9 µM (active) | EC50 (Streptococcus): > 150 µM (not active)

COc1cc(N(C)C)c([N+](=O)[O-])cc1C(=O)N1CCN(Cc2ccccc2)CC1
AC50 (HEK293): 12.8 µM (active)

COC(=O)c1ccc(NCc2c(O)ccc(O)c2Br)cc1Cl
IC50 [5]: 57.6 µM (active)

CC(=O)N1CCOc2cc(S(=O)(=O)NCc3ccc(F)cc3)c(C)cc21
AC50 [6]: > 70 µM (inactive)

O=C(CCN1CCN(C/C=C/c2ccccc2)CC1)Nc1ccc(Cl)cc1
IC50 (cells): 34.6 µM (active)

CCCOC(=O)c1cc(NC(=O)/C=C/c2ccccc2)ccc1O
CC50 [3]: 20.4 µM (active)

Cc1c(NCc2cc(Cl)cc(Cl)c2O)c(=O)n(-c2ccccc2)n1C
EC50 [4]: 4.76 µM (active) | EC50 (Streptokinase A): 21.1 µM (active) | EC50 (Streptococcus): > 150 µM (not active)

O=C(C(=O)N1CCOCC1)c1cn(Cc2ccc(F)cc2)c2ccccc12
IC50 [7]: > 20 µM (inactive)

O=C(Nc1ccc(Cl)cc1)c1ccc(-n2cncn2)c([N+](=O)[O-])c1
CC50 [3]: 20.6 µM (active)

CN(/N=C/c1ccc(O)cc1O)c1nc(-c2ccccc2)cc(-c2ccccc2)n1
AC50 (Paired box protein Pax-8): 26.9 µM (active)

Cc1cccc(/N=C2/Sc3nc4c(C)c(C)ccc4cc3CN2CCN2CCOCC2)c1
CC50 [3]: 16.1 µM (active)

O=c1c2sccc2[nH]c(=S)n1-c1ccccc1
IC50 [7]: > 20 µM (inactive)

O=C(Cc1ccc(Br)cc1)Nc1nc2ccccc2[nH]1
EC50 [4]: > 150 µM (not active) | EC50 (Streptokinase A): > 150 µM (not active) | EC50 (Streptococcus): > 150 µM (not active)

CCCCC(=O)Nc1ncc([N+](=O)[O-])s1
EC50 [1]: 0.141 µM (active) | EC50 [2]: > 160 µM (inactive)

CC1=Nc2ncnn2C(c2cccnc2)/C1=C(\O)OC1CCCCC1 (stereo not given)
EC50 [8]: 2.35 µM (active) | EC50 [9]: > 60 µM (not active) | AC50 (Paired box protein Pax-8): 36.1 µM (active)

O=C(CSC(=S)N1CCOCC1)c1cc(Br)cc(Br)c1O
EC50 [4]: 25 µM (active) | EC50 (Streptokinase A): > 150 µM (not active) | EC50 (Streptococcus): > 150 µM (not active)

COc1ccc(Cl)cc1C(=O)NCc1ccc2c(c1)OCO2
CC50 [3]: 34.4 µM (active)

O=C(Oc1ccc(Cl)c2cccnc12)c1cccc([N+](=O)[O-])c1
EC50 [1]: > 38 µM (not active) | EC50 [2]: 19.9 µM (inconclusive)

CN(C)c1ccc(/C=C2/NC(=O)NC2=O)cc1
IC50 [5]: 51.2 µM (active)

CN(C1=NC(=O)C(CC(=O)Nc2ccc(Br)cc2)S1)c1ccc(O)cc1 (stereo not given)
CC50 [3]: 36 µM (active) | EC50 [10]: 66.4 µM (active) | EC50 [11]: 23.8 µM (active) | EC50 [12]: > 120 µM (not active)

O=C(Nc1ccccc1)N1CCN(c2nc(-c3ccccc3)ns2)CC1
IC50 [7]: > 20 µM (inactive)

COc1cc2cc(C(=O)Nc3ccc4c(c3)OCCO4)[nH]c2cc1OC
AC50 (HEK293): 0.595 µM (active) | EC50 [13]: 0.907 µM (active)

O=C(OCC#CCSc1nnc(-c2ccccc2)o1)c1ccco1
IC50 (cells): 21.1 µM (active)

Cc1cccc(-n2ncc3c2CCCC3NC(=O)CCN2Cc3ccccc3C2=O)c1C (stereo not given)
EC50 [4]: > 150 µM (not active) | EC50 (Streptokinase A): > 150 µM (not active) | EC50 (Streptococcus): > 150 µM (not active)

CCOc1ccc(NC(=O)CN(C)C(=O)C2CC(=O)N(c3ccc4c(c3)OCCO4)C2)cc1OCC (stereo not given)
EC50 [4]: > 150 µM (not active) | EC50 (Streptokinase A): > 150 µM (not active) | EC50 (Streptococcus): > 150 µM (not active)

COCCSc1nnc(NC(=O)CCS(=O)(=O)Cc2ccccc2)s1
IC50 (cells): 45.5 µM (active)

O=C(c1ccc(F)cc1)N1CCN2C(=O)c3ccccc3C12c1ccc(Cl)cc1 (stereo not given)
CC50 [3]: 29 µM (active)

COc1ccccc1C1=Nn2c(nnc2C2CCCCC2)SC1
IC50 (cells): 12.1 µM (active)

Cc1ccc(-c2cc(C(=O)N/N=C/C=C/c3ccco3)c3ccccc3n2)cc1C
AC50 (HEK293): 1.63 µM (active)

Cc1cccc(NC(=O)NC2CCCCCCC2)c1
EC50 [1]: > 38 µM (not active) | EC50 [2]: 24.8 µM (active)
